Results: PubChem BioAssay AID330 (DTP/NCI, 2004)
“And” between values parts separate entries of the source, which are not always exact repeats. Equal entries are not always repeated. Toxic doses and inconclusive results are not listed.

Test system: P388 leukemia ip, CD2F1 mice, survival T/C
Experiment: NCI In Vivo Anticancer Drug Screen. Data for tumor model P388 Leukemia (intraperitoneal) in CD2F1 (CDF1) mice
Conditions: endpoint: median survival time, higher = longer survival
Summary of the method: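 Mice carrying the transplanted tumor received test compound or vehicle. Survival was recorded in each group, and the value is the treated-group measurement divided by that of the vehicle-treated control group.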

[1] = dose: 50.0 mg/kg/injection, schedule: Q01DX009 (ip), vehicle: saline + alcohol
[2] = dose: 100.0 mg/kg/injection, schedule: Q01DX009 (ip), vehicle: saline + alcohol
[3] = dose: 25.0 mg/kg/injection, schedule: Q01DX009 (ip), vehicle: saline
[4] = dose: 50.0 mg/kg/injection, schedule: Q01DX009 (ip), vehicle: saline
[5] = dose: 50.0 mg/kg/injection, schedule: Q01DX009 (ip), vehicle: saline with Tween-80
[6] = dose: 100.0 mg/kg/injection, schedule: Q01DX009 (ip), vehicle: saline with Tween-80
[7] = dose: 200.0 mg/kg/injection, schedule: Q01DX009 (ip), vehicle: saline with Tween-80
[8] = dose: 50.0 mg/kg/injection, schedule: Q01DX005 (ip), vehicle: Klucel (hydroxypropylcellulose) (HPC)
[9] = dose: 100.0 mg/kg/injection, schedule: Q01DX005 (ip), vehicle: Klucel (hydroxypropylcellulose) (HPC)
[10] = dose: 50.0 mg/kg/injection, schedule: Q01DX005 (ip), vehicle: saline with Tween-80
[11] = dose: 100.0 mg/kg/injection, schedule: Q01DX001 (ip), vehicle: saline with Tween-80
[12] = dose: 25.0 mg/kg/injection, schedule: Q04DX003 (ip), vehicle: saline with Tween-80
[13] = dose: 50.0 mg/kg/injection, schedule: Q04DX003 (ip), vehicle: saline with Tween-80

With `CC1(C)OC2CCC3OC(=O)C(C)(Cl)C3C2O1` (configuration not stated) the T/C (dose: 12.5 mg/kg/injection, schedule: Q01DX009 (ip), vehicle: other) was 116 % of control, the T/C (dose: 25.0 mg/kg/injection, schedule: Q01DX009 (ip), vehicle: other) was 107 % of control and the T/C (dose: 50.0 mg/kg/injection, schedule: Q01DX009 (ip), vehicle: other) was 99 % of control. The T/C (dose: 100.0 mg/kg/injection, schedule: Q01DX009 (ip), vehicle: other) was 116 % of control.
For `O=C(/C=C/c1ccc(OCc2ccccc2)cc1)c1cccc([N+](=O)[O-])c1`, the T/C [1] was 100 % of control, the T/C [2] was 92 % of control and the T/C (dose: 200.0 mg/kg/injection, schedule: Q01DX009 (ip), vehicle: saline + alcohol) was 89 % of control.
In the case of `OCc1ncccc1O`, the T/C [3] is reported as 99 % of control and 109 % of control, the T/C [4] is reported as 108 % of control and 100 % of control and 106 % of control and the T/C (dose: 100.0 mg/kg/injection, schedule: Q01DX009 (ip), vehicle: saline) is reported as 90 % of control and 102 % of control and 104 % of control. The T/C (dose: 200.0 mg/kg/injection, schedule: Q01DX009 (ip), vehicle: saline) was 110 % of control and 111 % of control and 97 % of control.
For `Cc1cc(C(=O)O)c(C)c([N+](=O)[O-])c1`, the T/C [5] was 88 % of control, the T/C [6] was 104 % of control and the T/C [7] was 98 % of control. For the same molecule, the T/C (dose: 400.0 mg/kg/injection, schedule: Q01DX009 (ip), vehicle: saline with Tween-80) was 100 % of control.
For `Cc1cc2c(c(C(C)(C)C)c1)OC(=O)/C2=C1/C(=O)Oc2c1cc(C)cc2C(C)(C)C`, the T/C (dose: 1.87 mg/kg/injection, schedule: Q01DX005 (ip), vehicle: Klucel (hydroxypropylcellulose) (HPC)) was 112 % of control, the T/C (dose: 3.75 mg/kg/injection, schedule: Q01DX005 (ip), vehicle: Klucel (hydroxypropylcellulose) (HPC)) was 101 % of control and the T/C (dose: 7.5 mg/kg/injection, schedule: Q01DX005 (ip), vehicle: Klucel (hydroxypropylcellulose) (HPC)) was 94 % of control. For the same molecule, the T/C (dose: 60.0 mg/kg/injection, schedule: Q01DX005 (ip), vehicle: Klucel (hydroxypropylcellulose) (HPC)) was 90 % of control.
For `Cn1c(=O)oc2cc([N+](=O)[O-])c(Cl)cc21`, the T/C [8] was 95 % of control and the T/C [9] was 92 % of control.
For `CC(=O)OCn1cc2c3c(cccc31)C1CC(C)CN(C)C1C2` (configuration not stated), the T/C (dose: 12.5 mg/kg/injection, schedule: Q01DX005 (ip), vehicle: saline with Tween-80) was 98 % of control, the T/C (dose: 25.0 mg/kg/injection, schedule: Q01DX005 (ip), vehicle: saline with Tween-80) was 106 % of control and the T/C [10] was 100 % of control.
With `COC(=O)c1c(/C(=N/Nc2ccc([N+](=O)[O-])cc2)[N+](=O)[O-])ssc1=N` the T/C [8] was 103 % of control, the T/C [9] was 97 % of control and the T/C (dose: 200.0 mg/kg/injection, schedule: Q01DX005 (ip), vehicle: Klucel (hydroxypropylcellulose) (HPC)) was 103 % of control.
With `CCOC(=O)C(c1ccccc1)(S(C)(=O)=O)S(C)(=O)=O` the T/C (dose: 12.5 mg/kg/injection, schedule: Q01DX009 (ip), vehicle: saline with Tween-80) was 108 % of control, the T/C (dose: 25.0 mg/kg/injection, schedule: Q01DX009 (ip), vehicle: saline with Tween-80) was 112 % of control and the T/C [5] was 104 % of control.
For `C=C1C(=O)O[C@H]2C3OC3(C)CC/C=C(/C(=O)OC)[C@@H](OC(C)=O)[C@H](OC(=O)C3(C)OC3C)[C@H]12` (some centres not stated), the T/C (dose: 1.87 mg/kg/injection, schedule: Q01DX009 (ip), vehicle: Klucel (hydroxypropylcellulose) (HPC)) was 112 % of control, the T/C (dose: 3.75 mg/kg/injection, schedule: Q01DX009 (ip), vehicle: Klucel (hydroxypropylcellulose) (HPC)) was 108 % of control and the T/C (dose: 7.5 mg/kg/injection, schedule: Q01DX009 (ip), vehicle: Klucel (hydroxypropylcellulose) (HPC)) was 107 % of control.
`O=C(O)c1ccccc1C(=O)n1cnc2ccccc21` was tested, and the T/C [5] was 87 % of control, the T/C [6] was 94 % of control and the T/C [7] was 90 % of control.
For `CCCCCCCCCCCCOC(=O)OCCCCCCCCCCCC`, the T/C (dose: 100.0 mg/kg/injection, schedule: Q04DX003 (ip), vehicle: saline with Tween-80) was 100 % of control, the T/C (dose: 200.0 mg/kg/injection, schedule: Q04DX003 (ip), vehicle: saline with Tween-80) was 100 % of control and the T/C (dose: 400.0 mg/kg/injection, schedule: Q04DX003 (ip), vehicle: saline with Tween-80) was 100 % of control.
For `O=S1(=O)CC23C=CC=CC2(CCCC3)C1Cl` (configuration not stated), the T/C (dose: 12.5 mg/kg/injection, schedule: Q01DX005 (ip), vehicle: Klucel (hydroxypropylcellulose) (HPC)) was 93 % of control, the T/C (dose: 25.0 mg/kg/injection, schedule: Q01DX005 (ip), vehicle: Klucel (hydroxypropylcellulose) (HPC)) was 89 % of control and the T/C [8] was 91 % of control.
`O=C1CCC(C(=O)N2CCCC2)N1` (configuration not stated) was tested, and the T/C (dose: 50.0 mg/kg/injection, schedule: Q01DX005 (ip), vehicle: saline) was 96 % of control and 100 % of control, the T/C (dose: 100.0 mg/kg/injection, schedule: Q01DX005 (ip), vehicle: saline) was 104 % of control and 98 % of control and the T/C (dose: 200.0 mg/kg/injection, schedule: Q01DX005 (ip), vehicle: saline) was 104 % of control and 97 % of control.
For `COc1cc2c(c(OC)c1OC)-c1ccc(OC)c(=O)cc1C(=O)CC2`, the T/C (dose: 0.62 mg/kg/injection, schedule: Q01DX009 (ip), vehicle: Klucel (hydroxypropylcellulose) (HPC)) was 115 % of control and the T/C (dose: 5.0 mg/kg/injection, schedule: Q01DX009 (ip), vehicle: Klucel (hydroxypropylcellulose) (HPC)) was 157 % of control.
With `CC1(C)OC2(C)CCC1C1C2N1C(=O)C1CC1` (configuration not stated) the T/C [10] was 97 % of control, the T/C (dose: 100.0 mg/kg/injection, schedule: Q01DX005 (ip), vehicle: saline with Tween-80) was 104 % of control and the T/C (dose: 200.0 mg/kg/injection, schedule: Q01DX005 (ip), vehicle: saline with Tween-80) was 105 % of control.
`O=[N+]([O-])C1C(O)CSCC1O` (configuration not stated) was tested, and the T/C [11] was 104 % of control, the T/C (dose: 200.0 mg/kg/injection, schedule: Q01DX001 (ip), vehicle: saline with Tween-80) was 104 % of control and the T/C (dose: 400.0 mg/kg/injection, schedule: Q01DX001 (ip), vehicle: saline with Tween-80) was 107 % of control.
`COC(=O)C(F)C(N)C(=O)O` (configuration not stated) was tested, and the T/C (dose: 12.5 mg/kg/injection, schedule: Q04DX003 (ip), vehicle: saline with Tween-80) was 100 % of control, the T/C [12] was 101 % of control and the T/C [13] was 99 % of control. For the same molecule, the T/C (dose: 200.0 mg/kg/injection, schedule: Q04DX003 (ip), vehicle: saline) was 103 % of control and the T/C (dose: 400.0 mg/kg/injection, schedule: Q04DX003 (ip), vehicle: saline) was 90 % of control.
For `C[Si](C)(C)CCCn1cc(F)c(=O)n(CCC[Si](C)(C)C)c1=O`, the T/C (dose: 60.0 mg/kg/injection, schedule: Q01DX005 (ip), vehicle: saline with Tween-80) was 104 % of control, the T/C (dose: 120.0 mg/kg/injection, schedule: Q01DX005 (ip), vehicle: saline with Tween-80) was 104 % of control and the T/C (dose: 240.0 mg/kg/injection, schedule: Q01DX005 (ip), vehicle: saline with Tween-80) was 101 % of control.
With `CCCOC(CN(C)C)C(Cl)(Cl)Cl` (configuration not stated) the T/C (dose: 50.0 mg/kg/injection, schedule: Q01DX009 (ip), vehicle: Klucel (hydroxypropylcellulose) (HPC)) was 101 % of control, the T/C (dose: 100.0 mg/kg/injection, schedule: Q01DX009 (ip), vehicle: Klucel (hydroxypropylcellulose) (HPC)) was 104 % of control and the T/C (dose: 200.0 mg/kg/injection, schedule: Q01DX009 (ip), vehicle: Klucel (hydroxypropylcellulose) (HPC)) was 100 % of control.
`S=P1(Sc2ccccc2)Oc2ccccc2O1` was tested, and the T/C (dose: 12.5 mg/kg/injection, schedule: Q01DX001 (ip), vehicle: saline with Tween-80) was 99 % of control, the T/C (dose: 25.0 mg/kg/injection, schedule: Q01DX001 (ip), vehicle: saline with Tween-80) was 100 % of control and the T/C (dose: 50.0 mg/kg/injection, schedule: Q01DX001 (ip), vehicle: saline with Tween-80) was 106 % of control. The T/C [11] was 90 % of control.
In the case of `COc1ccc(S(=O)(=O)O)cc1NS(=O)(=O)c1ccc(C)cc1`, the T/C (dose: 60.0 mg/kg/injection, schedule: Q01DX005 (ip), vehicle: saline) is reported as 102 % of control, the T/C (dose: 120.0 mg/kg/injection, schedule: Q01DX005 (ip), vehicle: saline) is reported as 98 % of control and the T/C (dose: 240.0 mg/kg/injection, schedule: Q01DX005 (ip), vehicle: saline) is reported as 103 % of control.
With `Cc1cc(OC(=O)Nc2ccc(C)c([N+](=O)[O-])c2)c(Br)cc1Cl` the T/C (dose: 12.5 mg/kg/injection, schedule: Q01DX009 (ip), vehicle: saline) was 100 % of control, the T/C [3] was 93 % of control and the T/C [1] was 96 % of control. The T/C [4] was 100 % of control and the T/C [2] was 99 % of control.
In the case of `CC1(C)N=C(N)N=C(N)N1c1cccc(CCCCc2cccc(S(=O)(=O)F)c2)c1`, the T/C (dose: 3.9 mg/kg/injection, schedule: Q04DX003 (ip), vehicle: saline with Tween-80) is reported as 122 % of control, the T/C [12] is reported as 95 % of control and the T/C [13] is reported as 90 % of control.
In the case of `CC(C)(C)c1cc2c(c(C(C)(C)C)c1)OP(F)(c1ccccc1)(c1ccccc1)N2`, the T/C [5] is reported as 89 % of control, the T/C [6] is reported as 95 % of control and the T/C [7] is reported as 98 % of control.
